Calls of active or inactive are those of the source.
Columns and labels:
[1] = biological target: T1, Corticotropin-releasing factor receptor 2/Corticotropin-releasing factor-binding protein (Homo sapiens, UniProt P24387+Q13324); experiment: Dose Response confirmation of uHTS hits for small molecule antagonists of the CRF-binding protein and CRF-R2 receptor complex.; assay type: functional; conditions: read-out: IC50_Mean
T1 sequence (Q13324 whole entry): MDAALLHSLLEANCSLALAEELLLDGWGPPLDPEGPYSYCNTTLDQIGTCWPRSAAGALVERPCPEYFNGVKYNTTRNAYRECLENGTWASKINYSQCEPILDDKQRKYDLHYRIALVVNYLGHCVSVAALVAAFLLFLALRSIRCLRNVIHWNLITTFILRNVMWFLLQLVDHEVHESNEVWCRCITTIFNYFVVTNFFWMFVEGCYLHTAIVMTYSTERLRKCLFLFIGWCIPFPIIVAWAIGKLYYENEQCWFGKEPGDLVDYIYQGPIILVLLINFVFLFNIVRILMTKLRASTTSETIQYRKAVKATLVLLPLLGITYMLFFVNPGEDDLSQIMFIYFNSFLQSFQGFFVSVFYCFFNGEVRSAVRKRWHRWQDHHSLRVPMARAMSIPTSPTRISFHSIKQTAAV
T1 sequence (P24387 whole entry): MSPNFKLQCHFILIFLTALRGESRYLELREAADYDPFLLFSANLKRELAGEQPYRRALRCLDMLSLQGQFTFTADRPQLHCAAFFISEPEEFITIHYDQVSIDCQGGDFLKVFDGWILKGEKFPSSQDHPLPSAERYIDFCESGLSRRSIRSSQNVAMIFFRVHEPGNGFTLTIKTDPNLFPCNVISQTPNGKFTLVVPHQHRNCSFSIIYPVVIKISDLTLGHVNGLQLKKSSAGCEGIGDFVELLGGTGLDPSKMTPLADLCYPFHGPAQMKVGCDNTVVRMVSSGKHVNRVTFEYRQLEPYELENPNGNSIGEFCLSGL

[2] = CRF-BP/CRF-R2 complex antagonists, dose response, cell-based, uHTS hits, 384-well (AID 651639); assay type: functional, Homo sapiens; conditions: read-out: IC50_Mean
[3] = biological target: T1, Corticotropin-releasing factor receptor 2/Corticotropin-releasing factor-binding protein; experiment: activators of CRF receptor 2 with binding protein – uHTS hits, confirmation (AID 602473); assay type: functional; conditions: read-out: EC50_Mean
Protein Tat = biological target: T2, Protein Tat (Human immunodeficiency virus type 1 group M subtype B (isolate HXB2)(HIV-1), UniProt P04608); assay type: functional;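 further: tat binding to TAR RNA read out by fluorescence polarization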
T2 sequence (P04608 whole entry): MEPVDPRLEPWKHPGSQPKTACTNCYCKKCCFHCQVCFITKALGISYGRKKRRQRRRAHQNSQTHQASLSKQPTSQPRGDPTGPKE

[4] = THP-1 cell cytotoxicity, dose response, cytotoxicity control for Vif-APOBEC3G degradation inhibitor project, THP-1 cells (AID 1117359); assay type: functional; conditions: Human immunodeficiency virus 1, THP-1
Caspase-6 = biological target: T3, Caspase-6 (Homo sapiens, UniProt P55212); experiment: human caspase-6 inhibitors, dose response, biochemical, VEID-R110 fluorescence, cherry-pick (AID 720632)
T3 sequence (P55212 whole entry): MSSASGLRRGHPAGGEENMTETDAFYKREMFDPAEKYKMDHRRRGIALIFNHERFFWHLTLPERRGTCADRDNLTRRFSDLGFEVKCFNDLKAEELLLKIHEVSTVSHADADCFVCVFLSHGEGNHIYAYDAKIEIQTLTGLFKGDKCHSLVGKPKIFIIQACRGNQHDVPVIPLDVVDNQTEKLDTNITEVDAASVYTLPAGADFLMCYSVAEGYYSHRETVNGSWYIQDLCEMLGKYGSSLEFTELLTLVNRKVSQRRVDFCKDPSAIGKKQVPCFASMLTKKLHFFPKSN

[5] = biological target: T4, RNA-binding protein pos-1 (Caenorhabditis elegans, UniProt G5EF15); experiment: inhibitors of POS-1/mex-3 RNA binding, dose response, biochemical, fluorescence polarization (AID 1964);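 further: purified POS-1 fused to maltose binding protein made in E. coli; potency of compounds blocking POS-1 binding to fluorescent RNA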
T4 sequence (G5EF15 whole entry): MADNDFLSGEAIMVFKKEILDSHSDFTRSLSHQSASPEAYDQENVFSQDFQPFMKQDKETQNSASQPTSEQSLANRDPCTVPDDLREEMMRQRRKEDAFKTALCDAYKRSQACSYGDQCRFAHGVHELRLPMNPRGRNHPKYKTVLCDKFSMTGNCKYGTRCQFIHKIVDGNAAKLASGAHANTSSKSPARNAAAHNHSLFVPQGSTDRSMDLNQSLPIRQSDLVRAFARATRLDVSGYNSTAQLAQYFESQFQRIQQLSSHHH

[6] = biological target: T5, Zinc finger protein mex-5 (Caenorhabditis elegans, UniProt Q9XUB2); experiment: MEX-5/TCR-2 RNA interaction inhibitors, dose response, biochemical, C. elegans, fluorescence polarization (AID 1960)
T5 sequence (Q9XUB2 whole entry): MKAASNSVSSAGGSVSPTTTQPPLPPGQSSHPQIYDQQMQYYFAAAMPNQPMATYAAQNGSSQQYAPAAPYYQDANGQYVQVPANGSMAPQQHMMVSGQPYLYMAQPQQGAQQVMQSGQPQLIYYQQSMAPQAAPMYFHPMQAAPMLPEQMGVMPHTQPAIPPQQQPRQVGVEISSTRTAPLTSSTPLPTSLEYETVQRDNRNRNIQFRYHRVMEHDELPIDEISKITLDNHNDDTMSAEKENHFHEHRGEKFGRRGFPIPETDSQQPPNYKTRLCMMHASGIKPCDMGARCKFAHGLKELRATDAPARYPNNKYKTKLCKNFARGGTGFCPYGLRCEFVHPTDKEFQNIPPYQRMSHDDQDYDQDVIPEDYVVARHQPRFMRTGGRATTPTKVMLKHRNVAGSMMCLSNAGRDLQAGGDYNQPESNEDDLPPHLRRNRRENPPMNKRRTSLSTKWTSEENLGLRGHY

[7] = inhibitors of HIV Env-driven cell fusion, dose response, cherry-pick (AID 652057); assay type: functional, cell-based
[8] = inhibitors of clade B AD8 Env fusion, dose response, cell-based, cherry-pick (AID 652062); assay type: functional;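 further: luciferase signal from cell-cell fusion driven by HIV-1 clade B AD8 Env; potency is for inhibitors of fusion seen as a drop in luminescence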
[9] = ZM109 Env clade C HIV-1 fusion inhibitors, dose response, HeLa effector, CEM target cells, luciferase, cherry-pick (AID 652058); assay type: functional, cell-based
[10] = off-target signal loss in HeLa-CEM21 co-culture – HeLa F-luc CTL cells, cherry-picked, counter-screen for HIV-1 Env fusion inhibitor project, dose response (AID 652040); assay type: functional, cell-based;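 further: potency for signal decrease marking cytotoxic or nonspecific inhibition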
[11] = biological target: T6, Long-chain-fatty-acid--AMP ligase FadD28 (Mycobacterium tuberculosis, UniProt P9WQ59); experiment: Fluorescence polarization aasay to screen for inhibitors that compete for the binding of FadD28 to a bisubstrate Measured in Biochemical System Using Plate Reader - 2147-01_Inhibitor_Dose_CherryPick_Activity.; assay type: functional, Mycobacterium tuberculosis H37Rv
T6 sequence (P9WQ59 whole entry): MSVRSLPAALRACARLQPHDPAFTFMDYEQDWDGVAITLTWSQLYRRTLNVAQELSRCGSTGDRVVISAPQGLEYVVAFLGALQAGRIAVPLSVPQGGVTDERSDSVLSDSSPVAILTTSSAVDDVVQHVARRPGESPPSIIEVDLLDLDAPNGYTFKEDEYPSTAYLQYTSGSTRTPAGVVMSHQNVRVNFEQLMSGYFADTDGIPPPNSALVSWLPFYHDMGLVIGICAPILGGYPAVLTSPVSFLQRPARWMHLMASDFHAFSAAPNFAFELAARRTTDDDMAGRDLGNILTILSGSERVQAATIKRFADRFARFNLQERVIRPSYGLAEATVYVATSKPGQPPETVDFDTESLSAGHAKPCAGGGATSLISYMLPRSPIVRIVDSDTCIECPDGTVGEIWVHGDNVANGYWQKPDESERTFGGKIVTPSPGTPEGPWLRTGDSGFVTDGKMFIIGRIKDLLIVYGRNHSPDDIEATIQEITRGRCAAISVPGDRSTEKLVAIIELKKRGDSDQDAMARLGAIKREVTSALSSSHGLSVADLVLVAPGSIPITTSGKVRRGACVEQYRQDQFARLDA

## O=C(COC(=O)c1cnc(Cl)c(Cl)c1)NCCC1=CCCCC1
[1]
  IC50: 7.16 µM (active)
[2]
  IC50: 7.15 µM (active)
[3]
  EC50: > 53 µM (inactive)

## CC(C)CC(NC(=O)/C(=C/c1ccco1)NC(=O)c1ccc(Br)o1)C(=O)O (stereo not given)
[1]
  IC50: > 47.1 µM (inactive)
Protein Tat
  IC50: > 100 µM (active)
[3]
  EC50: > 53 µM (inactive)

## COc1ccccc1N1CCN(CC(O)COCCOc2ccc(Br)cc2)CC1 (stereo not given)
[4]
  CC50: 29.9 µM (active)

## O=C(Cc1ccccc1)N1CCCCN2[C@H](CO)[C@@H](c3ccc(C#Cc4ccccc4)cc3)[C@H]2C1
Caspase-6
  AC50: 47.3 µM (active)

## Cc1cccc(N2C(=O)/C(=C/c3ccc(CN(CCC#N)S(C)(=O)=O)o3)C(=O)NC2=S)c1
[5]
  EC50: 67 µM (active)
[6]
  EC50: 41.2 µM (active)
Protein Tat
  IC50: > 100 µM (active)

## O=C(NN1C(=O)C2CC=C(Cl)CC2C1=O)c1ccncc1 (stereo not given)
Caspase-6
  AC50: 16.5 µM (active)

## C=C1CCN([C@H](C(=O)OCc2ccc(C)cc2)C(C)C)S(=O)(=O)c2ccccc21
[7]
  AC50: 3.35 µM (active)
[8]
  AC50: 13.2 µM (active)
[9]
  AC50: 7.43 µM (active)
[10]
  AC50: 5.69 µM (active)

## COc1ccc(C(=O)NCc2ccc(C)cc2)cc1S(=O)(=O)N1CCCC1
[11]
  AC50: 19 µM (active)

## Cn1cccc1/C=C1/C(=O)NC(=O)N(Cc2ccc(F)cc2)C1=O
[4]
  CC50: > 40 µM (active)

## COc1cccc(C2CC(c3ccccc3)=NN2S(=O)(=O)c2ccccc2)c1OC (stereo not given)
[11]
  AC50: 62.2 µM (active)

## CC(=O)Nc1ccc(/N=C(/C2=C(O)c3ccccc3C2=O)c2ccccc2)cc1
[11]
  AC50: > 100 µM (inactive)
